Experimental data from PubChem BioAssay (NCI).
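Step 1: Grow cells in 96-well plates. Step 2: Expose to compound for 48 hours at 5 concentrations. Step 3: Interpolate endpoints linearly; if unreached, use highest concentration. TGI: total growth inhibition.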

What was measured:
Assay in all cases: NCI anticancer screen, dose series, 48 h
MDA-MB-435 = tested on: MDA-MB-435
SK-OV-3 ovarian = tested on: SK-OV-3 ovarian
SK-MEL-28 melanoma = tested on: SK-MEL-28 melanoma
UACC-62 melanoma = tested on: UACC-62 melanoma
NCI-H460 lung = tested on: NCI-H460 lung
MDA-MB-231 breast = tested on: MDA-MB-231 breast
OVCAR-5 ovarian = tested on: OVCAR-5 ovarian
OVCAR-4 ovarian = tested on: OVCAR-4 ovarian
TK-10 renal = tested on: TK-10 renal
NCI-H522 lung = tested on: NCI-H522 lung
IGROV1 ovarian = tested on: IGROV1 ovarian
PC-3 prostate = tested on: PC-3 prostate
SNB-19 CNS = tested on: SNB-19 CNS
SF-268 CNS = tested on: SF-268 CNS
SF-295 CNS = tested on: SF-295 CNS
A549 NSCLC = tested on: A549 NSCLC
HOP-92 NSCLC = tested on: HOP-92 NSCLC
M14 melanoma = tested on: M14 melanoma
HCT-15 colon = tested on: HCT-15 colon
UACC-257 melanoma = tested on: UACC-257 melanoma
BT-549 breast = tested on: BT-549 breast
MCF7 breast = tested on: MCF7 breast
CAKI-1 renal = tested on: CAKI-1 renal
KM12 colon = tested on: KM12 colon
COLO 205 colon = tested on: COLO 205 colon
NCI-H23 lung = tested on: NCI-H23 lung
ACHN renal = tested on: ACHN renal
OVCAR-3 ovarian = tested on: OVCAR-3 ovarian
SR leukemia = tested on: SR leukemia
MALME-3M melanoma = tested on: MALME-3M melanoma
NCI-H226 lung = tested on: NCI-H226 lung
K-562 leukemia = tested on: K-562 leukemia
SK-MEL-2 melanoma = tested on: SK-MEL-2 melanoma
HT29 colon = tested on: HT29 colon
RXF 393 renal = tested on: RXF 393 renal
SW-620 colon = tested on: SW-620 colon
T-47D breast = tested on: T-47D breast
HL-60(TB) leukemia = tested on: HL-60(TB) leukemia
MDA-N = tested on: MDA-N
SN12C renal = tested on: SN12C renal
NCI/ADR-RES ovarian = tested on: NCI/ADR-RES ovarian
OVCAR-8 ovarian = tested on: OVCAR-8 ovarian
MOLT-4 leukemia = tested on: MOLT-4 leukemia
LOX IMVI melanoma = tested on: LOX IMVI melanoma
SF-539 CNS = tested on: SF-539 CNS
HCC-2998 colon = tested on: HCC-2998 colon
HOP-62 NSCLC = tested on: HOP-62 NSCLC
HCT-116 colon = tested on: HCT-116 colon
CCRF-CEM leukemia = tested on: CCRF-CEM leukemia
U251 CNS = tested on: U251 CNS
SK-MEL-5 melanoma = tested on: SK-MEL-5 melanoma
A498 renal = tested on: A498 renal
RPMI-8226 leukemia = tested on: RPMI-8226 leukemia
EKVX NSCLC = tested on: EKVX NSCLC
UO-31 renal = tested on: UO-31 renal
DU-145 prostate = tested on: DU-145 prostate
786-0 renal = tested on: 786-0 renal
HS 578T breast = tested on: HS 578T breast
SNB-75 CNS = tested on: SNB-75 CNS

## CCN(CC)CCCNc1c2c(Cl)cc(Cl)cc2nc2nc(=O)[nH]c(C)c12
MDA-MB-435
  TGI: 49.2 µM
SK-OV-3 ovarian
  TGI: 58 µM
SK-MEL-28 melanoma
  TGI: 95.2 µM
UACC-62 melanoma
  TGI: > 100 µM
NCI-H460 lung
  TGI: 37.1 µM
MDA-MB-231 breast
  TGI: 33.8 µM
OVCAR-5 ovarian
  TGI: 50.6 µM
OVCAR-4 ovarian
  TGI: > 100 µM
TK-10 renal
  TGI: > 100 µM
NCI-H522 lung
  TGI: 46.9 µM
IGROV1 ovarian
  TGI: > 100 µM
PC-3 prostate
  TGI: > 100 µM
SNB-19 CNS
  TGI: 44.3 µM
SF-268 CNS
  TGI: 52.5 µM
SF-295 CNS
  TGI: > 100 µM
A549 NSCLC
  TGI: > 100 µM
HOP-92 NSCLC
  TGI: > 100 µM
M14 melanoma
  TGI: 61.9 µM
HCT-15 colon
  TGI: > 100 µM
UACC-257 melanoma
  TGI: > 100 µM
BT-549 breast
  TGI: > 100 µM
MCF7 breast
  TGI: 53.9 µM
CAKI-1 renal
  TGI: > 100 µM
KM12 colon
  TGI: 31.1 µM
COLO 205 colon
  TGI: > 100 µM
NCI-H23 lung
  TGI: > 100 µM
ACHN renal
  TGI: > 100 µM
OVCAR-3 ovarian
  TGI: > 100 µM
SR leukemia
  TGI: > 10 µM
MALME-3M melanoma
  TGI: > 100 µM
NCI-H226 lung
  TGI: > 100 µM
K-562 leukemia
  TGI: > 100 µM
SK-MEL-2 melanoma
  TGI: > 100 µM
HT29 colon
  TGI: 36.4 µM
RXF 393 renal
  TGI: > 100 µM
SW-620 colon
  TGI: 37.9 µM
T-47D breast
  TGI: > 100 µM
HL-60(TB) leukemia
  TGI: > 100 µM
MDA-N
  TGI: 37.7 µM
SN12C renal
  TGI: > 100 µM
NCI/ADR-RES ovarian
  TGI: > 100 µM
OVCAR-8 ovarian
  TGI: > 10 µM
MOLT-4 leukemia
  TGI: 54.3 µM
LOX IMVI melanoma
  TGI: 48.5 µM
SF-539 CNS
  TGI: > 100 µM
HCC-2998 colon
  TGI: 51 µM
HOP-62 NSCLC
  TGI: 64.7 µM
HCT-116 colon
  TGI: 36.9 µM
CCRF-CEM leukemia
  TGI: > 100 µM
U251 CNS
  TGI: 33.9 µM
SK-MEL-5 melanoma
  TGI: > 100 µM
A498 renal
  TGI: > 100 µM
RPMI-8226 leukemia
  TGI: > 10 µM
EKVX NSCLC
  TGI: > 100 µM
UO-31 renal
  TGI: > 100 µM
DU-145 prostate
  TGI: > 100 µM
786-0 renal
  TGI: 38.1 µM
HS 578T breast
  TGI: > 100 µM

## O=C(NCCN1CCCCC1)c1ccc(Br)cc1
MDA-MB-435
  TGI: > 100 µM
SK-OV-3 ovarian
  TGI: > 100 µM
SK-MEL-28 melanoma
  TGI: > 100 µM
NCI-H460 lung
  TGI: > 100 µM
MDA-MB-231 breast
  TGI: > 100 µM
OVCAR-5 ovarian
  TGI: > 100 µM
OVCAR-4 ovarian
  TGI: > 100 µM
TK-10 renal
  TGI: > 100 µM
NCI-H522 lung
  TGI: > 100 µM
IGROV1 ovarian
  TGI: > 100 µM
PC-3 prostate
  TGI: > 100 µM
SNB-19 CNS
  TGI: > 100 µM
SF-268 CNS
  TGI: > 100 µM
SF-295 CNS
  TGI: > 100 µM
A549 NSCLC
  TGI: > 100 µM
HOP-92 NSCLC
  TGI: > 100 µM
M14 melanoma
  TGI: > 100 µM
HCT-15 colon
  TGI: > 100 µM
UACC-257 melanoma
  TGI: > 100 µM
BT-549 breast
  TGI: > 100 µM
MCF7 breast
  TGI: > 100 µM
CAKI-1 renal
  TGI: > 100 µM
KM12 colon
  TGI: > 100 µM
COLO 205 colon
  TGI: > 100 µM
NCI-H23 lung
  TGI: > 100 µM
ACHN renal
  TGI: > 100 µM
SNB-75 CNS
  TGI: > 100 µM
OVCAR-3 ovarian
  TGI: > 100 µM
SR leukemia
  TGI: > 100 µM
MALME-3M melanoma
  TGI: > 100 µM
K-562 leukemia
  TGI: > 100 µM
SK-MEL-2 melanoma
  TGI: > 100 µM
HT29 colon
  TGI: > 100 µM
RXF 393 renal
  TGI: > 100 µM
SW-620 colon
  TGI: > 100 µM
T-47D breast
  TGI: > 100 µM
HL-60(TB) leukemia
  TGI: > 100 µM
MDA-N
  TGI: > 100 µM
SN12C renal
  TGI: > 100 µM
NCI/ADR-RES ovarian
  TGI: > 100 µM
OVCAR-8 ovarian
  TGI: > 100 µM
MOLT-4 leukemia
  TGI: > 100 µM
LOX IMVI melanoma
  TGI: > 100 µM
HCC-2998 colon
  TGI: > 100 µM
HOP-62 NSCLC
  TGI: > 100 µM
HCT-116 colon
  TGI: > 100 µM
U251 CNS
  TGI: > 100 µM
SK-MEL-5 melanoma
  TGI: > 100 µM
A498 renal
  TGI: > 100 µM
RPMI-8226 leukemia
  TGI: > 100 µM
EKVX NSCLC
  TGI: > 100 µM
UO-31 renal
  TGI: > 100 µM
DU-145 prostate
  TGI: > 100 µM
786-0 renal
  TGI: > 100 µM
HS 578T breast
  TGI: > 100 µM
